Data reported in ChEMBL document CHEMBL1201862, “PubChem BioAssay data set” (2004).
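Dose response: 5 concentrations. Exposure: 48 h. Format: 96-well plates. Endpoint: linear interpolation; highest concentration if not reached. GI50 marks 50% less growth.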 The source made the active and inactive calls. Cut-off read from the data, not from the text of the source: active = GI50 up to about 1.1 µM and inactive = higher.

What was measured:
Test in all cases: growth of human tumour cells (NCI), 48 h
SNB-75 = system: SNB-75
MDA-N = system: MDA-N
OVCAR-4 = system: OVCAR-4
KM12 = system: KM12
HCT-116 = system: HCT-116
OVCAR-5 = system: OVCAR-5
SR = system: SR
SW-620 = system: SW-620
NCI-H522 = system: NCI-H522
UACC-257 = system: UACC-257
ACHN = system: ACHN
HL-60 = system: HL-60
DU-145 = system: DU-145
TK-10 = system: TK-10
MDA-MB-231 = system: MDA-MB-231
COLO 205 = system: COLO 205
EKVX = system: EKVX
NCI-H226 = system: NCI-H226
CCRF-CEM = system: CCRF-CEM

Measured: GI50

O=C(Nc1ccc([As](=O)(O)O)cc1)Nc1cccc(Cl)c1Cl
inactive: SNB-75 21.7 µM | MDA-N > 100 µM | OVCAR-4 18.7 µM | KM12 > 100 µM | HCT-116 > 100 µM | OVCAR-5 > 100 µM | SR 17 µM | SW-620 > 100 µM | NCI-H522 > 100 µM | UACC-257 > 100 µM | ACHN > 100 µM | HL-60 > 100 µM | DU-145 > 100 µM | TK-10 89.1 µM | MDA-MB-231 23.3 µM | COLO 205 > 100 µM | EKVX 79.8 µM | NCI-H226 > 100 µM

CSc1nc(NC2CCCC2)c2cc[nH]c2n1
inactive: CCRF-CEM 47.4 µM | MDA-N 54.3 µM | OVCAR-4 48.5 µM | KM12 54.6 µM | HCT-116 35.2 µM | SR 22.3 µM | SW-620 > 100 µM | NCI-H522 66.8 µM | UACC-257 55.5 µM | ACHN 64.7 µM | HL-60 20 µM | DU-145 > 100 µM | TK-10 72.6 µM | MDA-MB-231 36.1 µM | COLO 205 48.4 µM | EKVX 31.2 µM | NCI-H226 87.5 µM

O=C(NNC(=S)Nc1cccc(Cl)c1)c1cc(-c2ccccc2)nc2ccccc12
inactive: CCRF-CEM 10.2 µM | SNB-75 23.8 µM | MDA-N 18.3 µM | OVCAR-4 14.3 µM | KM12 18.5 µM | HCT-116 15.4 µM | OVCAR-5 15.4 µM | SR 23.9 µM | SW-620 14.6 µM | NCI-H522 14.5 µM | UACC-257 15.7 µM | ACHN 16.3 µM | DU-145 15.6 µM | TK-10 15.4 µM | MDA-MB-231 13.1 µM | COLO 205 12.9 µM | NCI-H226 20 µM

CSc1c(C#N)c2n(c3ccccc3[n+]2C)c2ncccc12
inactive: CCRF-CEM 24.2 µM | SNB-75 17.3 µM | MDA-N 21.2 µM | OVCAR-4 30.8 µM | KM12 22 µM | HCT-116 24.2 µM | OVCAR-5 23.2 µM | SR 23.5 µM | SW-620 20.2 µM | NCI-H522 19.5 µM | ACHN 18.7 µM | DU-145 13.9 µM | MDA-MB-231 18.5 µM | COLO 205 13.8 µM | EKVX 21.7 µM | NCI-H226 16.2 µM

CCc1n[nH]c(=O)n1NC(=O)c1ccccc1C(=O)O
inactive: CCRF-CEM > 100 µM | SNB-75 > 100 µM | MDA-N > 100 µM | OVCAR-4 > 100 µM | KM12 > 100 µM | HCT-116 > 100 µM | OVCAR-5 > 100 µM | SR > 100 µM | SW-620 > 100 µM | NCI-H522 > 100 µM | UACC-257 > 100 µM | ACHN > 100 µM | DU-145 > 100 µM | TK-10 > 100 µM | MDA-MB-231 > 100 µM | COLO 205 > 100 µM | EKVX > 100 µM

Nc1c(/C=C/c2cc3cc(C4=NCCN4)ccc3o2)[nH]c2cc(C3=NCCN3)ccc12
inactive: SNB-75 63.5 µM | MDA-N 37.8 µM | OVCAR-4 47.1 µM | KM12 34.4 µM | HCT-116 29.4 µM | OVCAR-5 > 100 µM | SR 43.7 µM | SW-620 34.4 µM | NCI-H522 45.9 µM | UACC-257 46.7 µM | ACHN 47.1 µM | HL-60 29.6 µM | DU-145 36.1 µM | TK-10 31.6 µM | MDA-MB-231 34.1 µM | COLO 205 41.3 µM | EKVX 40.1 µM | NCI-H226 > 100 µM

N=C(N)NCCCC(NC(=O)OCCCCCn1ccc(N)nc1=O)C(=O)O (stereo unspecified)
inactive: CCRF-CEM > 100 µM | SNB-75 > 100 µM | MDA-N > 100 µM | OVCAR-4 > 100 µM | KM12 > 100 µM | HCT-116 > 100 µM | OVCAR-5 > 100 µM | SR > 100 µM | SW-620 > 100 µM | UACC-257 > 100 µM | ACHN > 100 µM | HL-60 > 100 µM | DU-145 > 100 µM | TK-10 > 100 µM | MDA-MB-231 > 100 µM | COLO 205 > 100 µM | EKVX > 100 µM | NCI-H226 > 100 µM

CC(C)CCNC(=O)c1ccc(CNC(=O)/C=C/c2ccc(-c3ccccc3[N+](=O)[O-])o2)cc1
inactive: CCRF-CEM 12.2 µM | SNB-75 25 µM | MDA-N 89.5 µM | OVCAR-4 14.4 µM | KM12 32.5 µM | HCT-116 34.2 µM | OVCAR-5 81.8 µM | SR 91.8 µM | SW-620 41.5 µM | UACC-257 47 µM | ACHN 53.2 µM | HL-60 11.6 µM | DU-145 64.9 µM | MDA-MB-231 > 100 µM | COLO 205 > 100 µM | NCI-H226 21.9 µM

CCOC(=O)C(C(N)=O)C1=Nc2cc([N+](=O)[O-])ccc2N/C1=C\C(=O)c1ccc(C)cc1 (stereo unspecified)
inactive: CCRF-CEM 23.6 µM | SNB-75 16.1 µM | MDA-N 43.3 µM | OVCAR-4 43.6 µM | KM12 31.2 µM | HCT-116 20.7 µM | OVCAR-5 70.8 µM | SR 7.55 µM | SW-620 28.7 µM | NCI-H522 17.7 µM | UACC-257 39.5 µM | ACHN 21.3 µM | DU-145 32.6 µM | TK-10 14.8 µM | MDA-MB-231 18.4 µM | COLO 205 27.2 µM | EKVX 26.7 µM | NCI-H226 27.4 µM

CC(C)CC1NC(=O)C(C(C)C)NC(=O)CC(C)COC(=O)C(CC(C)C)N(C)C(=O)C(C(C)C)NC(=O)C(C(C)C)OC1=O (stereo unspecified)
inactive: CCRF-CEM 15.2 µM | SNB-75 10.9 µM | MDA-N > 50 µM | KM12 > 50 µM | HCT-116 > 50 µM | OVCAR-5 37.7 µM | SR > 50 µM | SW-620 > 50 µM | NCI-H522 > 50 µM | UACC-257 > 50 µM | ACHN > 50 µM | DU-145 > 50 µM | MDA-MB-231 19.7 µM | COLO 205 > 50 µM | EKVX > 50 µM | NCI-H226 13 µM

O=c1[nH]c(=O)n(C2C(CO)OC(CO)C2O)cc1F (stereo unspecified)
inactive: CCRF-CEM > 100 µM | SNB-75 > 100 µM | MDA-N > 100 µM | OVCAR-4 > 100 µM | KM12 > 100 µM | HCT-116 > 100 µM | OVCAR-5 > 100 µM | SR > 100 µM | SW-620 > 100 µM | NCI-H522 > 100 µM | UACC-257 > 100 µM | ACHN > 100 µM | DU-145 > 100 µM | TK-10 > 100 µM | MDA-MB-231 > 100 µM | COLO 205 > 100 µM | EKVX > 100 µM | NCI-H226 > 100 µM

CC1C(c2ccccc2)O[B-](F)(c2ccccc2)[NH+]1C (stereo unspecified)
inactive: CCRF-CEM > 100 µM | SNB-75 37.2 µM | MDA-N > 100 µM | OVCAR-4 > 100 µM | HCT-116 > 100 µM | OVCAR-5 > 100 µM | SR > 100 µM | SW-620 > 100 µM | UACC-257 > 100 µM | ACHN > 100 µM | HL-60 > 100 µM | DU-145 > 100 µM | TK-10 > 100 µM | MDA-MB-231 > 100 µM | COLO 205 > 100 µM | EKVX > 100 µM | NCI-H226 > 100 µM
